Results from patent publication US11192849B2, “Compounds, compositions, and methods for modulating ferroptosis and treating excitotoxic disorders” (THE TRUSTEES OF COLUMBIA UNIVERSITY IN THE CITY OF NEW YORK, priority 2013, dated 2021).

Legend:
HT-1080 cells [1] = test: Inhibition of erastin (10 μM)-induced death in HT-1080 cells (Alamar Blue); type: cell-based, human; conditions: for prevention of erastin-induced death: erastin-treated HT-1080 cells
Method in brief: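 HT-1080 cells (1,000/well) were treated next day with 10 μM erastin plus a compound dilution series for 24 h. Alamar Blue (10% final) was then added for 6 h and fluorescence read at ex/em 530/590.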

[2] = 2,2-Diphenyl-1-picrylhydrazyl (DPPH) cell-free antioxidant assay; type: biochemical; conditions: test compound 0.05 mM, 30 minutes
Method: The stable radical DPPH (Blois, 1958) was dissolved in methanol to a final working concentration of 0.05 mM. This was prepared as follows. First, a 100× stock concentration (5 mM) was prepared by dissolving 3.9 mg DPPH in 2 mL methanol. Then, for 25 mL of 0.05 mM final working solution, 250 μL of the 5 mM solution was added to 24.75 mL of methanol. 1 mL of DPPH solution was added to a small volume (<5 μL) each test compound dissolved in DMSO. The final concentration of each test compound was 0.05 mM. Samples were inverted several times and allowed to incubate at room temperature for 30 minutes. Samples were then aliquoted to white 96-well solid-bottom dishes (Corning) and absorbance at 517 nm was recorded using a TECAN M200 plate reader. All values were normalized to background (methanol only). The experiment was repeated three times and the data was averaged.
In parallel with the above cell-based assay, a 2,2-diphenyl-1-picrylhydrazyl (DPPH) assay was used to examine the ability of each analog to scavenge free radicals in a cell-free in vitro solution—a test of intrinsic antioxidant capacity. […] Redox active analogs scavenged the DPPH radical by 60-90% within 30 minutes (FIG. 18a).

HT-1080 cells [3] = test: Acridine orange relocalization (lysosomal membrane permeabilization) in HT-1080 cells; type: cell-based, human; conditions: acridine orange re-localization
Method: 200,000 HT-1080 cells were seeded into 6-well dishes (Corning). The next day, cells were incubated with 25 ng/mL of AO for 15 minutes, then medium was removed and cells were incubated in growth medium for 15 minutes. […] Relocalization of AO from lysosomes (discrete red puncta) to the cytosol (diffuse green color) was determined using an EVOS fl digital inverted fluorescent microscope (Advanced Microscopy Group) equipped with GFP (ex/em 470/525) and RFP (ex/em 531/593) light cubes.

[4] = system: rat organotypic hippocampal slice culture (OHSC); test: Glutamate excitotoxic injury in organotypic hippocampal slice cultures (PI uptake); type: cell-based; conditions: 5 mM L-glutamate 3 hours; Fer-1 2 μM, CPX 5 μM, MK-801 10 μM; 24 hours
Method: OHSCs were cultured as previously described (Morrison et al., 2002) with approval from Columbia University's Institutional Animal Care and Use Committee (IACUC). Briefly, Sprague Dawley rat pups (P8-P10) were rapidly decapitated, and the hippocampus placed in ice-cold Gey's balanced salt solution (Sigma). 400 μm thick sections were cut using a Mcllwain tissue chopper and immediately plated on Millicell cell culture inserts (Millipore, Billerica, Mass.) in Neurobasal (Invitrogen) media supplemented with B27 (1×, Invitrogen), GlutaMAX (1 mM, Invitrogen), and D-glucose (4.5 mg/mL, Sigma) at 37° C. and 5% CO2. After 2 days in vitro (DIV), the media was changed to medium containing serum comprised of 50% DMEM (Sigma), 25% heat-inactivated horse serum (Sigma), 25% Hank's balanced salt solution (Sigma), GlutaMAX (1 mM, Invitrogen), and D-glucose (4.5 mg/mL, Sigma). Medium was changed every 2-3 days.
After 10-14 DIV, OBSCs were exposed to an excitotoxic injury consisting of a 3 hour exposure to 5 mM L-glutamate in SFM (Morrison et al., 2002). […] After the 3 hour exposure, the cultures were placed in fresh serum free media (SFM) containing 75% DMEM, 25% Hank's balanced salt solution, GlutaMAX (1 mM), D-glucose (4.5 mg/mL) until cell death was quantified at 24 hours. […]
Quantification of cell death has been described previously (Cater et al., 2007; Morrison et al., 2002). […] Percentage cell death was expressed as the number of pixels in the ROI above a threshold in the PI fluorescent image divided by the total number of pixels in the ROI.
OHSCs were treated with a lethal excitotoxic stimulus (5 mM L-glutamate, 3 hours) that mimics the consequences of stroke and neurodegenerative disease (Morrison et al., 2002; Sundstrom et al., 2005) (FIG. 5A). […] The effects of these compound treatments on propidium iodide (PI) uptake were analyzed, as an indicator of cell death, 24 hours following the end of glutamate treatment, in 3 defined regions of the OHSCs: the dentate gyrus (DG), the CA1 and the CA3 fields of the hippocampus.

BJeLR and HT-1080 cells = test: Measurement of ATP levels; type: cell-based, human; conditions: normalized to viability
Method: ATP levels were evaluated using the ApoSENSOR ATP Assay Kit (Biovision Inc., Milpitas, Calif.) according to the manufacturer's instructions. 2000 HT-1080 or BJeLR cells were seeded in 96-well white bottom plates (Falcon). Cells were treated 12 hours later with compound as above for the TEM. Prior to luminescence measurement, medium was removed and cells were lysed and incubated with ATP Monitoring Enzyme. Luminescence was measured using a Victor3 platereader equipped with an infrared emission filter every 30 seconds for 10 minutes. Typically the first reading was used for data analysis. Parallel cell culture treatments were performed in 96-well clear bottom plates and cell viability was determined using Alamar Blue. These values were used to normalize ATP levels to cell viability.

[5] = system: mouse kidney proximal tubules; test: Hydroxyquinoline + iron induced cell death in isolated mouse kidney proximal tubules (LDH release); type: cell-based; conditions: 10 μM hydroxyquinoline and ferrous ammonium sulfate, 60 min
Method: Tubule preparation: 8-12 week old C57/BL6 female mice were euthanized with isoflurane. […] The cortices were then dissected and minced on an ice cold tile, then resuspended in additional Solution A for 8-10 min. of digestion at 37° C. followed by enrichment of proximal tubules using centrifugation on self-forming Percoll gradients as previously described for rabbit tubules.
Experimental procedures for isolated tubules: Tubules were suspended at 1.5-2.0 mg tubule protein/ml in a 95% air/5% CO2-gassed medium containing (in mM) 110 NaCl, 2.6 KCl, 25 NaHCO3, 2.4 KH2PO4, 1.25 CaCl2, 1.2 MgCl2, 1.2 MgSO4, 5 glucose, 4 sodium lactate, 0.3 alanine, 5 sodium butyrate, 2 glycine, and 1.0 mg/ml bovine gelatin (75 bloom) (Solution B). After precincubation for 15 min. at 37° C., then were then resuspended in fresh Solution B containing 2 mM heptanoic acid instead of sodium butyrate along with experimental compounds.
In addition, the efficacy of Fer-1, SRS11-92, and selected analogs was tested in a model of iron-induced cell death in freshly isolated mouse kidney proximal tubules that simulates major elements of rhabdomyolysis-induced acute kidney injury (FIG. 15C). Cell death in this model is known to involve oxidative lipid damage (Sogabe, et al., 1996, Park, et al., 2011); it was therefore believed that Fer-1 might be protective. 10 μM each of hydroxyquinoline and ferrous ammonium sulfate (HQ+Fe) were used to induce cell death, which was quantified by monitoring LDH release after 60 min. […] By implication, cell death in these models may involve, at least in part, the induction of lipid peroxidation and perhaps ferroptosis.

Calu-1 cells = test: Erastin-induced ferroptosis in Calu-1 cells, NOX pathway inhibitors; type: cell-based, human
Method: (§1) Cell viability was typically assessed in 384-well format by Alamar Blue (Invitrogen) fluorescence (ex/em 530/590) measured on a Victor3 platereader (Perkin Elmer, Waltham, Mass.). In some experiments, Trypan Blue dye exclusion counting was performed using an automated cell counter (ViCell, Beckman-Coulter Inc., Brea, Calif.). Cell viability in test conditions is reported as a percentage relative to the negative control treatment.

143B osteosarcoma cells = test: Erastin / RSL3 lethality in 143B ρ0 and ρ+ cells; type: cell-based, human; conditions: 24 hours
Method: as §1
Because two erastin targets, VDAC2 and VDAC3, reside in the mitochondria, it was hypothesized that erastin-induced death involved aberrant ROS production by the mitochondrial electron transport chain (ETC). […] Furthermore, KRAS-mutant 143B osteosarcoma cells incapable of ETC-dependent ROS formation, due to the depletion of mitochondrial DNA (mtDNA)-encoded transcripts (ρ^0 cells), were as sensitive to erastin and RSL3 as matched mtDNA-wild-type (ρ^+) cells (FIGS. 1E, 1F, and 8C-E). Thus, erastin-induced cell death in human cancer cells involves DFO-sensitive ROS accumulation and can occur in cells lacking a functional ETC. This iron-dependent death phenotype was named ferroptosis.

system xc− = molecular target: T1, system xc− (Homo sapiens, UniProt Q9UPY5); test: [14C]Cystine uptake assay in HT-1080 cells; type: cell-based; conditions: Erastin 10 μM, glutamate 50 mM, SAS 1 mM
T1 construct: endogenous in cells; host or cells: HT-1080 cells (ATCC)
T1 sequence (Q9UPY5 1-501): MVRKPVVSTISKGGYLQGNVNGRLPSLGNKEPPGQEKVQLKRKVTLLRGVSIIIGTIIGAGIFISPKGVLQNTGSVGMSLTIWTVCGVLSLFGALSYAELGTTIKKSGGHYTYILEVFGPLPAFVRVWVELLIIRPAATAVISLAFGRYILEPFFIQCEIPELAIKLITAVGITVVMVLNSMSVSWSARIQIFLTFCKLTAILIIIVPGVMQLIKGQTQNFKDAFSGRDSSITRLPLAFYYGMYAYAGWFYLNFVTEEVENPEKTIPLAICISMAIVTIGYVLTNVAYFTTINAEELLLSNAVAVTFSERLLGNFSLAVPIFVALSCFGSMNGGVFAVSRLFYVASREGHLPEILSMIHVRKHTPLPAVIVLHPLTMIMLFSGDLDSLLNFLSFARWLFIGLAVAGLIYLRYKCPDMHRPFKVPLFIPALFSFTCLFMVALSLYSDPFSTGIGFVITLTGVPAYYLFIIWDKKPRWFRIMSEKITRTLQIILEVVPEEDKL
T1 sequence (P08195 1-529 partner): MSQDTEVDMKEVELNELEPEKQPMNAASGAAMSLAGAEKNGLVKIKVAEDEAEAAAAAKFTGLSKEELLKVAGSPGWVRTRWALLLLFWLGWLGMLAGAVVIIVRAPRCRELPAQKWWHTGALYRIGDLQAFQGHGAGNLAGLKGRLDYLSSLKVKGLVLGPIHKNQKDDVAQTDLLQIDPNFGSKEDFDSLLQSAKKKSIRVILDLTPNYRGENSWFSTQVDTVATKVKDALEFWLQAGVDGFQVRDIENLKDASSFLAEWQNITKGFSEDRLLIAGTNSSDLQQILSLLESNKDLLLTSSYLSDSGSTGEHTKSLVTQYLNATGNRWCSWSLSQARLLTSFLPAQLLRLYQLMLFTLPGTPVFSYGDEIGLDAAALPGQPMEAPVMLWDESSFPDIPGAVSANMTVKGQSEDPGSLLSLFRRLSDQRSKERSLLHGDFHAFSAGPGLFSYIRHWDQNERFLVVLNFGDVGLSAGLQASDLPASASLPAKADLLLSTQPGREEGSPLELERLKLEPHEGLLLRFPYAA
Method: 200,000 HT-1080 cells/well were seeded overnight in 6-well dishes (Corning). […] At this point, in each well the buffer was replaced with 600 μL uptake buffer containing compound and 0.12 μCi (80-110 mCi/mmol) of L-[3,3′-^14C]-cystine (Perkin Elmer) and incubated for 3 minutes at 37° C. Cells were then washed three times with ice-cold uptake buffer and lysed in 500 μL 0.1 M NaOH. To this lysate was added 15 mL of scintillation fluid and radioactive counts per minute were obtained using a scintillation counter. All measurements were performed in triplicate for each condition.

HT-1080 cells [6] = test: Mitochondrial ROS (MitoSOX) in HT-1080 cells; type: cell-based, human; conditions: HT-1080, 6 hours; erastin 10 μM, rotenone 250 nM
Method: 200,000 HT-1080 cells were seeded into 6-well dishes (Corning). The next day, cells were treated with +/−rotenone +/−ferrostatin-1 for 3 hours (for MitoSOX experiments) or +/−STS +/−ferrostatin-1 for 4 hours (for 10-N-nonylacridine orange [NAO] experiments), harvested by trypsinization and analyzed as follows. For the analysis of mitochondrial ROS, cells were incubated with 5 μM MitoSOX (Molecular Probes/Invitrogen) in HBSS for 10 minutes in the dark at 37° C. […] MitoSOX data were collected in the FL2 channel and NAO data was collected in the FL1 channel. Data are from three independent biological replicates of each experiment. Data were analyzed by one-way ANOVA with Bonferroni's post-hoc test.
A minimum of 10,000 cells were analyzed per condition.

CCOC(=O)c1ccc(N)c(N)c1 [CA1]
EC50 (HT-1080 cells [1]; SI Table 8, read-out: EC50): > 10 µM
prevention of erastin-induced death (HT-1080 cells [1]): destroyed
intrinsic antioxidant capability in the DPPH assay [2]: destroyed the antioxidant capability

Cc1cc(C2CCCCC2)n(O)c(=O)c1 [CPX, ciclopirox olamine, reference compound]
prevention of erastin-induced death (HT-1080 cells [1]): suppressed erastin-induced death
lysosomal membrane destruction in response to H2O2 (HT-1080 cells [3]): protects from lysosomal rupture
glutamate-induced cell death (PI uptake) in DG, CA1, CA3 [4]: attenuated significantly

OO [Compound H2O2, hydrogen peroxide]
intracellular ATP (BJeLR and HT-1080 cells): substantial depletion of intracellular ATP

CN(C)c1cccc(-c2c3c(=O)n(-c4ccccc4Cl)[nH]c3cc(=O)n2C)c1 [GKT137831, reference compound]
HQ+Fe induced lethality (LDH release) [5]: protective
suppression of erastin-induced ferroptosis (Calu-1 cells): strongly suppressed

COC(=O)c1ccc([C@@H]2c3[nH]c4ccccc4c3C[C@@H](C(=O)OC)N2C(=O)CCl)cc1 [RSL3]
sensitivity of ρ0 versus ρ+ cells (143B osteosarcoma cells): as sensitive
Na+-independent uptake of [14C]cystine (system xc−): had no effect on this process

C=C(C)[C@H]1Cc2c(ccc3c2O[C@@H]2COc4cc(OC)c(OC)cc4[C@@H]2C3=O)O1 [rotenone, reference compound]
MitoSOX-sensitive mitochondrial ROS production (HT-1080 cells [6]): enhanced MitoSOX-sensitive ROS production
